Measurements as given in patent US12378250B2, “Tricyclic compound as IRAK4 inhibitor” (KOREA RESEARCH INSTITUTE OF CHEMICAL TECHNOLOGY, priority 2018, dated 2025).

Experiments:
[1] = biological target: T1, IRAK4 enzyme (Homo sapiens, UniProt Q9NWZ3); experiment: IRAK4 enzyme inhibition degree (bead-based kinase assay, peptide substrate BMKC-2, 100 μM ATP); type: biochemical; conditions: compound 1 μM
T1 sequence (Q9NWZ3 1-460): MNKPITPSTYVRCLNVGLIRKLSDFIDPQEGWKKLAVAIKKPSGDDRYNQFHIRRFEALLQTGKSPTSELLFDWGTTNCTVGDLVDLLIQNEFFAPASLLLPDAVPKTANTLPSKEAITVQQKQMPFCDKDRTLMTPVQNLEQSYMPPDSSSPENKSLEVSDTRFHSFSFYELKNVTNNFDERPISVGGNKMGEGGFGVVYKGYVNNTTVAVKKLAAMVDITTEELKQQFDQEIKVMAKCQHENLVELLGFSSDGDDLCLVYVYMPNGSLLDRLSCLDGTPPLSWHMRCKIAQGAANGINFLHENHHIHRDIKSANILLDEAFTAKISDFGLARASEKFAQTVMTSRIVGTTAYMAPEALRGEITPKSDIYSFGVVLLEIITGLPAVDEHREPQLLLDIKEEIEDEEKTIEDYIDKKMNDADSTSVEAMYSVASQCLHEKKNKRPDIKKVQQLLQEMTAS
Procedure, shortened: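 IRAK4 (0.4 ng/μl stock) preincubated 10 min with compound, then 6 μM BMKC-2 peptide with 100 μM ATP (mix concentrations) for 60 min at room temperature; EDTA stop. Phospho-Thr antibody with AlphaScreen donor/acceptor beads detected product; % inhibition versus controls, IC50 by non-linear regression.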

[2] = test system: NF-κB promoter, THP1-Lucia™ NF-κB cell line; experiment: NF-κB promoter inhibition, THP1-Lucia NF-κB cell line; type: cell-based; conditions: 100 ng/ml LPS, 24 hours, read-out: NF-κB, % inhibition degree
Procedure, shortened: (§1)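 THP1-Lucia cells (NF-κB line 1×10^4/well, ISG line 2×10^4/well) preincubated with compound for 30 minutes. Stimulation then used 100 ng/ml LPS (NF-κB) or 1 μg/ml Poly(dA:dT)/LyoVec (ISG) for 24 hours. Secreted luciferase in supernatant measured by Quanti-luc luminescence.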

[3] = test system: ISG promoter, THP1-Lucia™ ISG cell line; experiment: ISG promoter inhibition, THP1-Lucia ISG cell line; type: cell-based; conditions: 1 μg/ml Poly(dA:dT)/LyoVec, 24 hours, read-out: ISG, % inhibition degree
Procedure, shortened: as §1

[4] = test system: TNF-α in serum, LPS-induced systemic inflammatory disease; experiment: Suppressive effects on LPS-induced systemic inflammatory disease in mice (serum TNF-α); type: in vivo, C57BL/6 mice; conditions: doses of 50 and 100 mg/kg, oral, 2 hours prior to LPS 15 mg/kg i.p.
Protocol: As experimental animals, 8-week-old C57BL/6 (20 to 23 g) mice were supplied from Orient Bio Co., Ltd. (Seongnam, Gyeonggi-do) and used. The mice were acclimatized for 2 weeks or more in an animal room of the Korea Research Institute of Chemical Technology, where temperature (22±1° C.) and humidity (50±10%) were automatically adjusted, and then used for experiments, and allowed to freely ingest water and feed. This animal experiment was performed with the approval of the Animal Care and Use Committee of the Korea Research Institute of Chemical Technology. A systemic inflammatory disease was induced by administering a dose of 15 mg/kg lipopolysaccharide (LPS, Sigma L2880) intraperitoneally to the mice. A test drug was suspended in a 10% Cremophor solution and administered orally 2 hours prior to LPS injection, the mice were anesthetized with isoflurane 1 hour after LPS administration, and blood was collected from the heart. Serum was obtained by centrifuging the collected blood at 13,000 rpm for 15 minutes, store at −20° C., and then taken if needed to measure the content of cytokine (TNF-α) in serum using an ELISA kit manufactured by BD Biosciences. […]

## Fc1cncc(-c2ccc3[nH]c4ncnc(N[C@H]5CC[C@H](N6CCOCC6)CC5)c4c3c2)c1 [Compound 6aaf, 6-(5-fluoropyridin-3-yl)-N-(trans-4-morpholinocyclohexyl)-9H-pyrimido[4,5-b]indole-4-amine]
[1]
  inhibition at 1 µM: 100%
[2]; 0.1 μM
  inhibition at 0.1 µM: 43%
[2]; 1 μM
  inhibition at 1 µM: 82%
[3]; 0.1 μM
  inhibition at 0.1 µM: 24%
[3]; 1 μM
  inhibition at 1 µM: 83%
[4]
  suppressive effect on systemic inflammation (serum TNF-α) compared to PF-06650833: better suppressive effect than PF-06650833
